Results published in US20250304587A1, “WEE1 INHIBITOR, PREPARATION THEREFOR AND USE THEREOF” (JIANGSU TASLY DIYI PHARMACEUTICAL CO., LTD., priority 2022, published 2025).

What was measured:
BxPC3 cells = experiment: Cell Titer-Glo anti-proliferation, BxPC3 cells; type: cell-based, human; details: 3 days, read-out: Anti-proliferative activity BxPC3 (IC50 class)
Protocol: (§1) A. Evaluation of the Anti-Proliferative Effect of Compounds on BxPC3, HT-29 and OVCAR-3 Cells by the Cell Titer-Glo Method
(§2) Compound solutions of different concentration gradients were prepared. […] The cell growth group without compound was used as a positive control (maximum signal control) and the medium was used as a negative control (minimum signal control), while ensuring that the final level of DMSO in each reaction well was 0.2%. After removing the medium from the 384-well plate, 25 μl of the configured compound at different concentrations was transferred into the well plate and the compound and cells were incubated in the cell incubator at 37° C. with 5% CO2 for 3 days.
(§3) The 384-well plates were removed from the cell incubator and allowed to equilibrate for 1 h to room temperature. 25 μl of Cell Titer-Glo assay was added to each well, lysed on a shaker for 2 min and then read out (Luminescence) using a BMG PHERAStar after 10 min incubation. Calculate the inhibition rate from the luminescence signal.
(§4) to calculate the rate of inhibition of the cells by different concentrations of the compounds. The IC50 of the compound on cell activity inhibition was calculated by fitting a log(inhibitor) vs. response-Variable slope model to GraphPad Prism 6. The fitted equation was: Y=Bottom+(Top-Bottom)/(1+10^((Log IC50−X)*HillSlope)), where Y represents the rate of inhibition and X represents the concentration of the known compound after Log.

HT-29 cells = experiment: Cell Titer-Glo anti-proliferation, HT-29 cells; type: cell-based, human; details: 3 days, read-out: Anti-proliferative activity HT-29 (IC50 class)
Protocol: as §1, §2, §3, §4

OVCAR-3 cells = experiment: Cell Titer-Glo anti-proliferation, OVCAR-3 cells; type: cell-based; details: 3 days, read-out: Anti-proliferative activity OVCAR-3 (IC50 class)
Protocol: as §1, §2, §3, §4

HUVEC cells = experiment: Cell Titer-Glo anti-proliferation, normal cells HUVEC; type: cell-based
Protocol: as §2, §3, §4
(§5) B. Evaluation of the Anti-Proliferative Effect of Compounds by the Cell Titer-Glo Method on Normal Cells HUVEC and HK2.
(§6) The test method is the same as the anti-proliferative activity evaluation of tumor cells.

HK2 cells = experiment: Cell Titer-Glo anti-proliferation, normal cells HK2; type: cell-based
Protocol: as §2, §3, §4, §5, §6

Caco-2 cells = experiment: Membrane permeability in Caco-2 model; type: in vitro ADME
Protocol: Caco-2 cells were purchased from the American Model Tissue Cell Collection (Rockville, MD). The cell culture medium was modified Eagle's medium (MEM) containing 10% inactivated fetal bovine serum and 1% non-essential amino acids. […] The cells were incubated for 21-28 days after inoculation for transport experiments and the apparent permeability (Papp) of Lucifer Yellow was used to characterize and verify the compactness of the cell monolayer. […] After the incubation, dilute the samples on the apical side and basolateral side, and the concentrations of compounds on the apical and basolateral sides were detected by LC-MS/MS, and the concentrations of the compounds were quantified by standard curve.

Wee1 protein = Wee1 protein (Homo sapiens (Human), UniProt P30291); experiment: TR-FRET binding of compound to Wee1 protein and Tracer 178; details: Tracer 178, read-out: IC50, inhibitory activity against Wee1 kinase
Protocol: First, solutions of the compounds in different concentration gradients were prepared. The compounds were dissolved in DMSO and the compounds were diluted 4 folds with a total of 10 dose points and 2 parallel replicates for each concentration.
The IC50 for inhibition of enzyme activity by the compounds was then calculated using GraphPad Prism 6 and fitted with a log (inhibitor) vs. response-Variable slope mode. The fitting equation was: Y=Bottom+(Top−Bottom)/(1+10^((Log IC50−X)*HillSlope)), where Y represents the percentage of residual enzyme activity known and X represents the known concentration of compound after the logarithm.

hERG potassium channel = hERG potassium channel (Homo sapiens (Human), UniProt Q12809); experiment: hERG potassium channel inhibition, patch clamp in CHO hERG cells
Chain of hERG potassium channel (Q12809 whole entry): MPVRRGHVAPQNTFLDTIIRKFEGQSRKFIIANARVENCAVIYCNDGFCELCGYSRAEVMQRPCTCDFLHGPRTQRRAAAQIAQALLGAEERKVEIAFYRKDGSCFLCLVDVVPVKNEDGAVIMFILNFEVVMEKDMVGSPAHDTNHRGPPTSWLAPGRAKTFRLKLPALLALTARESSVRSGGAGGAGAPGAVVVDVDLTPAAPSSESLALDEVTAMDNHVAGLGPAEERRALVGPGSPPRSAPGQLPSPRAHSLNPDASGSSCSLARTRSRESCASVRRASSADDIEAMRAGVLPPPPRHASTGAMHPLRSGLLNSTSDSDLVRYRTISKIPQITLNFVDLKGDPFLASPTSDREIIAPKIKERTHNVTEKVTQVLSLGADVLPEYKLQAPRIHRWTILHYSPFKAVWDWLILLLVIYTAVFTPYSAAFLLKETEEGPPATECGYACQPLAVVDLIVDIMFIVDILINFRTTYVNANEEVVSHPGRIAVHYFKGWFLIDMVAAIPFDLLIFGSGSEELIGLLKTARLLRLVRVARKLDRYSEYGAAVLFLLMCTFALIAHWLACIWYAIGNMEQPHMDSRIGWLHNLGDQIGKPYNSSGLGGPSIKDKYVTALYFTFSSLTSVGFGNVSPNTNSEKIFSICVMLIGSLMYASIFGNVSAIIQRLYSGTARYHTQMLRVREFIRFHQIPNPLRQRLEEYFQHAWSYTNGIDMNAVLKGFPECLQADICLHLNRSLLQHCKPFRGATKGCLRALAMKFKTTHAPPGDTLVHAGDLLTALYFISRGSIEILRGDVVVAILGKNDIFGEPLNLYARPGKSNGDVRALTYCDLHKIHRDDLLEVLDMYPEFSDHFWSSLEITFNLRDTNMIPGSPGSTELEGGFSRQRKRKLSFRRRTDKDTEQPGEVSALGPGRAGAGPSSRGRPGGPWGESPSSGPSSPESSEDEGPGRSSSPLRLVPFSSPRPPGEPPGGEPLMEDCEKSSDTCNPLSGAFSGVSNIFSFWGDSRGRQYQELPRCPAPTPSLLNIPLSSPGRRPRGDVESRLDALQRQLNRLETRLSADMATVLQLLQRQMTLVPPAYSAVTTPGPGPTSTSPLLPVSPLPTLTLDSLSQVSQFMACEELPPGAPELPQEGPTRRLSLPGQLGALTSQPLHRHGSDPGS
Protocol: The cell line used for the patch clamp assay was a 10th generation CHO cell overexpressing hERG potassium channel cDNA. CHO hERG cells were cultured in Petri dishes or flasks at 37° C. in a 5% CO2 incubator. Cells were dropped onto circular slides 24-48 hours prior to electrophysiological experiments and cultured in cell culture medium and used for experiments after the cells had been adhered.
Cell culture medium (purchased from Invitrogen) Composition: • Ham's F12 medium • 10% (v/v) heat inactivated FBS • 100 μg/ml Hygromycin B (thaumatin) • 100 μg/ml Geneticin (Genomycin, G418)
Compound powders are dissolved in the extracellular solution and are subjected to a routine 5 to 10 minute sonication and shaking to ensure complete dissolution of the compound.
The final concentrations of compounds used for electrophysiological assays were 5, 20 μM and the final concentration of DMSO was 0.1%.
Cell membrane currents were recorded using a HEKA EPC-10 USB patch-clamp amplifier (HEKA Elektronik, Germany). • 1) A coverslip with a large number of uniformly growing individual CHO hERG cells on its surface was taken. Place in a continuous recording cell on an inverted microscope, perfused with extracellular fluid (approximately 1 ml per minute) and recorded continuously, waiting for the current to stabilize. • 2) Record HERG channel currents for individual cells using standard whole cell recording mode. The membrane voltage is first clamped at −80 mV and the cell is given a +20 mV stimulus for 5 s to activate the hERG potassium channel, then repolarized to −50 mV for 5 s to generate an outward tail current, which is continuously perfused until the current is stable, at which point the peak tail current is the control current value. • 3) The extracellular solution containing the drug to be tested was then perfused and recorded until the inhibitory effect of the drug on the hERG current reached a steady state, at which point the peak tail current was the post-drug current value. • 4) The cells are again perfused with the extracellular solution until the hERG current returns to or approaches the level prior to the addition of the drug, then the perfusion can be continued to test other concentrations or drugs. One or more compound or drug concentrations may be tested on each cell. • 5) Cisapride (C4740-10 mg, Sigma) is used as a positive control in the experiment to ensure that the cells used respond properly.

Chain of Wee1 protein (P30291 whole entry): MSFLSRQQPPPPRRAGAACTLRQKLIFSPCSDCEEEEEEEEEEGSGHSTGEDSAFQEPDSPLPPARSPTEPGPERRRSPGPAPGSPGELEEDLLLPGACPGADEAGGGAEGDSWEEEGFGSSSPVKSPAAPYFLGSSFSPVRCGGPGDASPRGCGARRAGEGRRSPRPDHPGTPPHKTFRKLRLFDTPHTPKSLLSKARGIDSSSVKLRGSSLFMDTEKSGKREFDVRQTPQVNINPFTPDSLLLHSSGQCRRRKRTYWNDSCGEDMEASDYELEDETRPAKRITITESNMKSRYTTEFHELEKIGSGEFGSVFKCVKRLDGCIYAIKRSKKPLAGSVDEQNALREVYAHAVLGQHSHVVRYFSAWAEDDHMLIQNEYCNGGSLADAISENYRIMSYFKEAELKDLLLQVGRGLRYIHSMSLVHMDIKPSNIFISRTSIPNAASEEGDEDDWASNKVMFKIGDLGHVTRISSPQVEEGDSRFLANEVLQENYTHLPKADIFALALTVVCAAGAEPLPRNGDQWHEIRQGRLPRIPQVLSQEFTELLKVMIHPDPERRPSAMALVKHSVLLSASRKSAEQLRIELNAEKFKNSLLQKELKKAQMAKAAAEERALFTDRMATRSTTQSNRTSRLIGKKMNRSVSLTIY

| SMILES | IC50 (BxPC3 cells) [µM] | IC50 (HT-29 cells) [µM] | IC50 (OVCAR-3 cells) [µM] | IC50 (Wee1 protein) [µM] | IC50 (HUVEC cells) [µM] | IC50 (HK2 cells) [µM] | Efflux Ration (Caco-2 cells; Caco2) | Papp A to B (Caco-2 cells; Caco2, 10 μM, 90 min) | Papp B to A (Caco-2 cells; Caco2, 10 μM, 90 min) | hERG Inhibition (hERG potassium channel; test concentration 5 μM) [%] | hERG Inhibition (hERG potassium channel; test concentration 20 μM) [%] |
| --- | --- | --- | --- | --- | --- | --- | --- | --- | --- | --- | --- |
| C=CCn1c(=O)c2cnc(Nc3ccc(N4CCN(C)CC4)cc3)nc2n1-c1ccc2c(n1)C(C)(O)C1(CC1)C2 (single isomer, unassigned) [Compound 3b] | 1 to 2 | 0.1 to 1 | 0.1 to 1 | – | – | – | 17.90 | 0.73 10^−6 cm/s | 13.07 10^−6 cm/s | – | – |
| C=CCn1c(=O)c2cnc(Nc3ccc(N4CCN(C)CC4)cc3)nc2n1-c1ccc2c(n1)[C@@H](O)C1(CC2)CC1 (single isomer, unassigned) [Compound 4a] | 2 to 5 | 1 to 2 | 2 to 5 | ≤ 0.005 | – | – | – | – | – | – | – |
| C=CCn1c(=O)c2cnc(Nc3ccc(N4CCN(C)CC4)c(C)c3)nc2n1-c1ccc2c(n1)[C@@](C)(O)C1(CC2)CC1 (single isomer, unassigned) [Compound 23a] | 0.1 to 1 | 0.1 to 1 | 0.1 to 1 | ≤ 0.005 | – | – | – | – | – | – | – |
| C=CCn1c(=O)c2cnc(Nc3ccc(N4CCC(N(C)C)CC4)c(C)c3)nc2n1-c1ccc2c(n1)[C@@H](O)C1(CC2)CC1 (single isomer, unassigned) [Compound 41b] | 0.1 to 1 | 0.1 to 1 | 0.1 to 1 | ≤ 0.005 | > 10 | 0.55 | – | – | – | – | – |
| C=CCn1c(=O)c2cnc(Nc3ccc(N4CCC5(CCN(C)CC5)CC4)cc3)nc2n1-c1ccc2c(n1)[C@](C)(O)C1(CC2)CC1 (single isomer, unassigned) [Compound 44a] | – | – | – | ≤ 0.005 | 1.03 | 0.36 | – | – | – | – | – |
| C=CCn1c(=O)c2cnc(Nc3ccc(N4CC5CC(C4)N5CC)cc3)nc2n1-c1ccc2c(n1)[C@](C)(O)C1(CC2)CC1 (single isomer, unassigned) [Compound 51a] | 0.1 to 1 | 0.1 to 1 | 0.1 to 1 | ≤ 0.005 | – | – | – | – | – | – | – |
| C=CCn1c(=O)c2cnc(Nc3ccc(N4CCN(C)CC4)cc3)nc2n1-c1ccc2c(c1)N(CC)C(=O)C21CC1 [Compound 1] | 5 to 10 | 1 to 2 | – | 0.01 to 0.1 | – | – | – | – | – | – | – |
| C=CCn1c(=O)c2cnc(Nc3ccc(N4CCN(C)CC4)cc3)nc2n1-c1ccc2c(n1)N(CC)C(=O)C21CCC1 [Compound 2] | 2 to 5 | 1 to 2 | – | 0.01 to 0.1 | – | – | – | – | – | – | – |
| C=CCn1c(=O)c2cnc(Nc3ccc(N4CCN(C)CC4)cc3)nc2n1-c1ccc2c(n1)C(O)C1(CC2)CC1 (stereo not drawn) [Compound 4] | 1 to 2 | 0.1 to 1 | 1 to 2 | ≤ 0.005 | – | – | – | – | – | – | – |

More lines, main results first:

| IC50 (BxPC3 cells) [µM] | IC50 (HT-29 cells) [µM] | IC50 (OVCAR-3 cells) [µM] | IC50 (Wee1 protein) [µM] | SMILES | IC50 (HUVEC cells) [µM] | IC50 (HK2 cells) [µM] | Efflux Ration (Caco-2 cells; Caco2) | Papp A to B (Caco-2 cells; Caco2, 10 μM, 90 min) | Papp B to A (Caco-2 cells; Caco2, 10 μM, 90 min) | hERG Inhibition (hERG potassium channel; test concentration 5 μM) [%] | hERG Inhibition (hERG potassium channel; test concentration 20 μM) [%] |
| --- | --- | --- | --- | --- | --- | --- | --- | --- | --- | --- | --- |
| 0.1 to 1 | 0.1 to 1 | 0.1 to 1 | – | C=CCn1c(=O)c2cnc(Nc3ccc(N4C[C@H]5CN(C)C[C@H]5C4)cc3)nc2n1-c1ccc2c(n1)C(O)(C(F)(F)F)C1(CC1)C2 (mixture of isomers) [Compound 55] | > 10 | 0.93 | – | – | – | – | – |
| 0.1 to 1 | 0.1 to 1 | 0.1 to 1 | – | C=CCn1c(=O)c2cnc(Nc3ccc(N4CCC(N(C)C)CC4)c(C)c3)nc2n1-c1ccc2c(n1)[C@H](O)C1(CC2)CC1 (single isomer, unassigned) [Compound 48b] | – | – | – | – | – | 73.67 ± 0.93 | 90.92 ± 0.49 |
| 0.1 to 1 | 0.1 to 1 | 0.1 to 1 | – | C=CCn1c(=O)c2cnc(Nc3ccc(N4CCN(C)[C@@H](C)C4)cc3)nc2n1-c1ccc2c(n1)[C@@H](O)C1(CC2)CC1 (single isomer, unassigned) [Compound 56b] | > 10 | 0.99 | – | – | – | – | – |
| 0.1 to 1 | 0.1 to 1 | 0.1 to 1 | – | C=CCn1c(=O)c2cnc(Nc3ccc(N4CCN(C(C)C)CC4)cc3)nc2n1-c1ccc2c(n1)[C@@H](O)C1(CC2)CC1 (single isomer, unassigned) [Compound 57b] | > 10 | 0.92 | – | – | – | – | – |
| 0.1 to 1 | 0.1 to 1 | 0.1 to 1 | 0.005 to 0.01 | C=CCn1c(=O)c2cnc(Nc3ccc(N4CCC5(CCN(C)CC5)CC4)c(C)c3)nc2n1-c1ccc2c(n1)[C@H](O)C1(CC2)CC1 (single isomer, unassigned) [Compound 61b] | 4.46 | 0.49 | – | – | – | – | – |
